From ChEMBL document CHEMBL5506024, “Multitarget μ-Opioid Receptor Agonists─Neuropeptide FF Receptor Antagonists Induce Potent Antinociception with Reduced Adverse Side Effects” (J Med Chem, 2024)
Calls of active or inactive are those of the source. Numbered stars: 1 amine (or outer) side, 2 acyl side, 3 side chain; on linkers, the order of the positions; unused ones are H or OH. Square brackets hold non-standard residues; d marks the D form. Peptide text beside a SMILES is read from it. * marks the point of attachment. Nva(5-(4-Bn-piperidin-1-yl)) = N[C@@H](CCCN1CCC(Cc2ccccc2)CC1)C(=O)O; X2 = O=C1[C@@H](N[*:1])Cc2ccccc2CN1CCCC(=O)[*:2]; X1 = O=C1[C@@H](N[*:1])Cc2ccccc2CN1CCC(=O)[*:2]; Dmt = Cc1cc(O)cc(C)c1C[C@H](N)C(=O)O; Nicotinoyl = O=C(c1cccnc1)*; dOrn = NCCC[C@@H](N)C(=O)O; dNMeA = CN[C@H](C)C(=O)O

Columns and labels:
[1] = target: T1, Mu-type opioid receptor (Homo sapiens, UniProt P35372); test: Agonist activity at human Rluc8-tagged MOP expressed in HEK293 cells coexpressing eYFP-tagged beta-arrestin-2 assessed as beta-arrestin-2 recruitment incubated for 5 mins by luminometer analysis; type: functional, cell-based
T1 sequence (P35372 whole entry): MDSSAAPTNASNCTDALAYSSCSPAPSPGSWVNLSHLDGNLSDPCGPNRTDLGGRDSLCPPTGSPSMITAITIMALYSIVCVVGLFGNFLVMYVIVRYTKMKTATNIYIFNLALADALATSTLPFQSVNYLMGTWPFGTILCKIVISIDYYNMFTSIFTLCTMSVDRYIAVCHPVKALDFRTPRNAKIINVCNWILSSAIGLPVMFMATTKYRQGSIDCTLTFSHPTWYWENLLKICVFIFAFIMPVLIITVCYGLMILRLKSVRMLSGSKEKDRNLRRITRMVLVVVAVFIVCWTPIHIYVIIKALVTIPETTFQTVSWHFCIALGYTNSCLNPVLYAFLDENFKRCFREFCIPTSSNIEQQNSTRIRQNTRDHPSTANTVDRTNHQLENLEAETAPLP

[2] = target: T2, Neuropeptide FF receptor 1 (Homo sapiens, UniProt Q9GZQ6); test: Displacement of [125I]-1DMeNPFF from human NPFFR1 expressed in CHO cell membrane at 0.5 uM incubated for 1 hr by Topcount counting method relative to control; type: cell membranes
T2 sequence (Q9GZQ6 whole entry): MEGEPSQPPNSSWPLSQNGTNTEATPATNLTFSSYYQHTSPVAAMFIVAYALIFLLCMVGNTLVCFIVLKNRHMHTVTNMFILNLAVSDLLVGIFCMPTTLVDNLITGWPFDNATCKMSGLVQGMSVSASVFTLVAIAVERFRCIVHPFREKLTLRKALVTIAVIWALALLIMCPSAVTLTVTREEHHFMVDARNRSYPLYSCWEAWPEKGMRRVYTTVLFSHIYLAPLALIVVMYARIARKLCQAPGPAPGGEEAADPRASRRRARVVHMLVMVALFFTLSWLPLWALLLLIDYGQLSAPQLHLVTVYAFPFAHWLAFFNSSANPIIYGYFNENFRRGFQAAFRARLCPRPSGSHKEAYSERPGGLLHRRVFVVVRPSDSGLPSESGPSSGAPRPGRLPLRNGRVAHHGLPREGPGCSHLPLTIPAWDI

[3] = target: T3, Neuropeptide FF receptor 2 (Homo sapiens, UniProt Q9Y5X5); test: Displacement of [125I]-1DMeNPFF from human NPFFR2 expressed in CHO cell membrane at 0.05 uM incubated for 1 hr by Topcount counting method relative to control; type: cell membranes; conditions: filed as antagonist
T3 sequence (Q9Y5X5 whole entry): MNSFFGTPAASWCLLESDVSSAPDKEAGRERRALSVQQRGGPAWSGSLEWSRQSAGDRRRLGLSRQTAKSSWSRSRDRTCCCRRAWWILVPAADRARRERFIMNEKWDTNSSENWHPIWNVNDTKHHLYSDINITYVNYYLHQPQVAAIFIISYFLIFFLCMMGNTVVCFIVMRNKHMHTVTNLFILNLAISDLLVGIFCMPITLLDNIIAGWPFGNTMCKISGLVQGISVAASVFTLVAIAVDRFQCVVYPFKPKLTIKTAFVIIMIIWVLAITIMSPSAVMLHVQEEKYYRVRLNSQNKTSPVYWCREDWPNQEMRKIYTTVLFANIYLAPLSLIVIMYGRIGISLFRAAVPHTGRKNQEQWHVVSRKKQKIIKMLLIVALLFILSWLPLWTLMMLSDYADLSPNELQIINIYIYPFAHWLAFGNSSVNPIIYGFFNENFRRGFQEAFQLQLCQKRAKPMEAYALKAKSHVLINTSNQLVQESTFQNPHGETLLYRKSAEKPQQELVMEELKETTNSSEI

[4] = target: T2, Neuropeptide FF receptor 1; test: Antagonist activity at human NPFFR1 expressed in CHO cell membrane assessed as inhibition of NPVF induced cAMP response at 5 uM incubated for 1 hr by Topcount counting method relative to control; type: functional, cell membranes; design: scale not given: the % may be the effect or the level left
[5] = target: T3, Neuropeptide FF receptor 2; test: Antagonist activity at human NPFFR2 expressed in CHO cell membrane assessed as inhibition of NPVF induced cAMP response at 5 uM incubated for 1 hr by Topcount counting method relative to control; type: functional, cell membranes; design: scale not given: the % may be the effect or the level left
[6] = target: T1, Mu-type opioid receptor; test: Agonist activity at human MOP expressed in HEK293 cells coexpressing GloSensor-20F assessed as inhibition of forskolin-induced cAMP accumulation relative to control; type: functional, cell-based; conditions: filed as agonist
[7] = target: T1, Mu-type opioid receptor; test: Agonist activity at human Rluc8-tagged MOP expressed in HEK293 cells coexpressing eYFP-tagged beta-arrestin-2 assessed as beta-arrestin-2 recruitment incubated for 5 mins by luminometer analysis relative to control; type: functional, cell-based
[8] = Tmax in mouse at 10 mg/kg, sc measured upto 24 hrs by LC-MS/MS analysis; type: ADME, organism-based; conditions: in vivo
[9] = Half life in mouse at 10 mg/kg, sc measured upto 24 hrs by LC-MS/MS analysis; type: ADME, organism-based; conditions: in vivo
[10] = test system: Mus musculus; test: Antinociceptive activity in mouse at 4.2 umol/kg, sc administered chronically and measured on day 8; type: functional, organism-based; conditions: dose 4.2 µmol/kg
[11] = Induction of naltrexone-precipitated withdrawal syndrome in sc dosed C57BL/6N mouse assessed as paw tremor administered for 8 days followed by naltrexone addition on day 9 after 2 hrs post last dose and measured after 30 mins; type: toxicity, organism-based; conditions: in vivo, 216.5 h, time 12990 min
[12] = test system: Mus musculus; test: Antinociceptive activity in mouse at 4.2 umol/kg, sc administered chronically and measured on day 1; type: functional, organism-based; conditions: dose 4.2 µmol/kg
[13] = Cmax in mouse at 10 mg/kg, sc measured upto 24 hrs by LC-MS/MS analysis; type: ADME, organism-based; conditions: in vivo
[14] = test system: Mus musculus; test: Antinociceptive activity in mouse at 4.2 umol/kg, sc administered daily and measured on day 1 and 8; type: functional, organism-based; conditions: dose 4.2 µmol/kg
[15] = Induction of naltrexone-precipitated withdrawal syndrome in sc dosed C57BL/6N mouse assessed as wet dog shake counts administered for 8 days followed by naltrexone addition on day 9 after 2 hrs post last dose and measured after 30 mins; type: toxicity, organism-based; conditions: in vivo, 216.5 h, time 12990 min
[16] = target: Kappa-type opioid receptor (Homo sapiens, UniProt P41145); test: Antagonist activity at human KOR expressed in HEK293 cells assessed as forskolin-induced cAMP accumulation in presence of IBMX; type: functional, cell-based; conditions: filed as antagonist
Sequence of Kappa-type opioid receptor (P41145 whole entry): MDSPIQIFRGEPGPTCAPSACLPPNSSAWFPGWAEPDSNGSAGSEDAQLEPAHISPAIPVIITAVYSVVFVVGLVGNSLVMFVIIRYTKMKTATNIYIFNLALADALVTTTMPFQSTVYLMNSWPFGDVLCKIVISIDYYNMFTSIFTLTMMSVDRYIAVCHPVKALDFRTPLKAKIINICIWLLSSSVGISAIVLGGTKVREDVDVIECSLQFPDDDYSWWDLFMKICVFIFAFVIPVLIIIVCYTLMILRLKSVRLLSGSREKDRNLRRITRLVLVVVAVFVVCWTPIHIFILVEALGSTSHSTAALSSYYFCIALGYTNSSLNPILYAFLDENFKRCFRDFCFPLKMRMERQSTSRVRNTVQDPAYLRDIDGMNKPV

[17] = target: Nociceptin receptor (Homo sapiens) (UniProt P41146); test: Antagonist activity at human NOR expressed in HEK293 cells assessed as forskolin-induced cAMP accumulation in presence of IBMX; type: functional, cell-based; conditions: filed as antagonist
Sequence of Nociceptin receptor (Homo sapiens) (P41146 whole entry): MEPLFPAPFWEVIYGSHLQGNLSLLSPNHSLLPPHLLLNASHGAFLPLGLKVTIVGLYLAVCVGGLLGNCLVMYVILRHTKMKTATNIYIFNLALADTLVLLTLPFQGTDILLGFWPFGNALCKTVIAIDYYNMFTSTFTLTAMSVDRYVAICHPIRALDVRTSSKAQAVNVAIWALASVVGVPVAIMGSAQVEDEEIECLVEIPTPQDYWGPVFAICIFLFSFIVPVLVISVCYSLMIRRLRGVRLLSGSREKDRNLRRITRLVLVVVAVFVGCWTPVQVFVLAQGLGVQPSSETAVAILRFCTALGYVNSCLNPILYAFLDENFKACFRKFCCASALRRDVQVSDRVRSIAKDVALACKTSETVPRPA

[18] = Drug concentration in mouse plasma at 10 mg/kg, sc measured after 2 hrs by LC-MS/MS analysis; type: ADME, organism-based
[19] = target: T1, Mu-type opioid receptor; test: Agonist activity at human MOP expressed in HEK293 cells coexpressing GloSensor-20F assessed as inhibition of forskolin-induced cAMP accumulation; type: functional, cell-based
[20] = Toxicity in sc dosed C57BL/6N mouse assessed as induction of respiratory depression by measuring decrease in pulmonary rate by plethysmography; type: organism-based; conditions: in vivo
[21] = test system: Mus musculus; test: Antinociceptive activity in mouse at 10 mg/kg, sc administered daily and measured on day 8; type: functional, organism-based
[22] = Induction of naltrexone-precipitated withdrawal syndrome in sc dosed C57BL/6N mouse assessed as somatic signs administered for 8 days followed by naltrexone addition on day 9 after 2 hrs post last dose and measured after 30 mins; type: toxicity, organism-based; conditions: in vivo, 216.5 h, time 12990 min
[23] = Induction of naltrexone-precipitated withdrawal syndrome in sc dosed C57BL/6N mouse assessed as vegetative signs administered for 8 days followed by naltrexone addition on day 9 after 2 hrs post last dose and measured after 30 mins; type: toxicity, organism-based; conditions: in vivo, 216.5 h, time 12990 min
[24] = test system: Mus musculus; test: Antinociceptive activity in mouse assessed as basal nociceptive threshold at 10 mg/kg, sc administered daily and measured on day 2 to 7; type: functional, organism-based

Row | Structure (SMILES) | EC50 ([1]; read-out: EC50) | Activity ([2]; filed as antagonist) | Activity [3] | Activity [4] | Activity ([5]; filed as antagonist) | Emax [6] | Emax [7] | Activity ([4]; filed as antagonist) | EC50 [19] | other results
1 | Cc1cc(O)cc(C)c1C[C@H](N)C(=O)N[C@H](CCCCNC(=O)c1cccnc1)C(=O)N[C@H]1Cc2ccccc2CN(CCC(=O)N[C@@H](CCCN2CCC(Cc3ccccc3)CC2)C(=O)N[C@@H](Cc2ccccc2)C(N)=O)C1=O (H-[Dmt][dK](Nicotinoyl)[X1][Nva(5-(4-Bn-piperidin-1-yl))]F-NH2) | 12 nM | 74% | 70% | 33% | 59% | 92% | 16% | – | – | –
2 | Cc1cc(O)cc(C)c1C[C@H](N)C(=O)N[C@H](CCCNC(=N)N)C(=O)N[C@H]1Cc2c(ccc3ccccc23)CN(CC(=O)N[C@@H](CCCN2CCC(Cc3ccccc3)CC2)C(=O)N[C@@H](Cc2ccccc2)C(N)=O)C1=O | – | – | 96% | 22% | 91% | 90% | 22% | – | – | Activity [2]: 35%
3 | Cc1cc(O)cc(C)c1C[C@H](N)C(=O)N[C@H](CCCNC(=N)N)C(=O)N[C@H]1Cc2ccccc2CN(CCC(=O)N[C@@H](CCCN2CCC(Cc3ccccc3)CC2)C(=O)N[C@@H](Cc2ccccc2)C(N)=O)C1=O | 125 nM | 80% | 83% | – | 54% | 91% | – | 62% | 9.3 nM | Tmax [8]: 2.67 h; half-life [9]: 3.08 h; Activity [10]: inactive; Activity [11]: Non-Toxic; Activity [12]: Active; Cmax [13]: 984 nM; Activity [14]: Active; Activity [15]: Non-Toxic; Activity [16]: Active; Activity [17]: Active; concentration at 2 h [18]: 937 nM; Emax ([7]; filed as agonist): 42%
4 | Cc1cc(O)cc(C)c1C[C@H](N)C(=O)N(C)[C@H](C)C(=O)N[C@H]1Cc2ccccc2CN(CCC(=O)N[C@@H](CCCN2CCC(Cc3ccccc3)CC2)C(=O)N[C@@H](Cc2ccccc2)C(N)=O)C1=O (H-[Dmt][dNMeA][X1][Nva(5-(4-Bn-piperidin-1-yl))]F-NH2) | – | 43% | 48% | – | 45% | 64% | 12% | 75% | – | –
5 | Cc1cc(O)cc(C)c1C[C@H](N)C(=O)N[C@H](CCCNC(=N)N)C(=O)N[C@H]1Cc2c(ccc3ccccc23)CN(CC(=O)N[C@@H](CCCN2CCC(Cc3ccccc3)CC2)C(=O)N[C@H](C(N)=O)C(C)C)C1=O | – | 87% | 77% | – | 77% | 102% | 22% | 51% | – | –
6 | Cc1cc(O)cc(C)c1C[C@H](N)C(=O)N(C)[C@H](C)C(=O)N[C@H]1Cc2ccccc2CN(CCCC(=O)N[C@@H](CCCN2CCC(Cc3ccccc3)CC2)C(=O)N[C@@H](Cc2ccccc2)C(N)=O)C1=O (H-[Dmt][dNMeA][X2][Nva(5-(4-Bn-piperidin-1-yl))]F-NH2) | – | 57% | 65% | 12% | 49% | 66% | – | – | 10.6 nM | EC50 ([1]; hek293): Not Active
7 | COc1ccsc1CNCC[C@@]1(c2ccccn2)CCOC2(CCCC2)C1 [OLICERIDINE] | – | – | – | – | – | – | – | – | – | Activity [20]: Dose-Dependent Effect; Activity [21]: inactive; Activity [22]: Toxic; Activity [23]: Toxic; Activity [24]: inactive
8 | Cc1cc(O)cc(C)c1C[C@H](N)C(=O)N[C@H](CCCN)C(=O)N[C@H]1Cc2ccccc2CN(CCC(=O)N[C@@H](CCCN2CCC(Cc3ccccc3)CC2)C(=O)N[C@@H](Cc2ccccc2)C(N)=O)C1=O (H-[Dmt][dOrn][X1][Nva(5-(4-Bn-piperidin-1-yl))]F-NH2) | 2350 nM | 45% | 55% | 22% | – | 78% | 20% | – | 34 nM | Activity [5]: 37%
9 | Cc1cc(O)cc(C)c1C[C@H](N)C(=O)N[C@H](CCCNC(=N)N)C(=O)N[C@H]1Cc2c(ccc3ccccc23)CN(CC(=O)N[C@@H](CCCN2CCC(Cc3ccccc3)CC2)C(=O)N[C@@H](Cc2c[nH]c3ccccc23)C(N)=O)C1=O | – | 68% | 84% | – | 83% | 65% | – | 62% | 10.5 nM | EC50 ([1]; hek293): Not Active
